The values that follow come from ChEMBL document CHEMBL1152175, “Synthesis, tubulin assembly, and antiproliferative activity against MCF7 and NCI/ADR-RES cancer cells of 10-O-acetyl-5'-hydroxybutitaxel” (2008).

The subject of one experiment is NCI/ADR-RES. Put plainly: Cytotoxicity against human NCI/ADR-RES cells. To be noted: read-out: ED50 (the source's name). It counts as functional.
A short description of experiment [1]: Inhibition of tubulin assembly.
The next experiment concerns MCF7. As to the kind of experiment: Cytotoxicity against human MCF7 cells. The format is functional. To be noted: read-out: ED50 (the source's name).

As for `CC(=O)O[C@H]1C(=O)[C@@]2(C)[C@H]([C@H](OC(=O)c3ccccc3)[C@]3(O)C[C@H](OC(=O)[C@H](O)[C@@H](NC(=O)OC(C)(C)C)C(C)(C)CO)C(C)=C1C3(C)C)[C@]1(OC(C)=O)CO[C@@H]1C[C@@H]2O`, the results for the EC50 with NCI/ADR-RES and with MCF7 were 12.5 µM and 560 nM, respectively. This compound also gave an ED50 in experiment [1] of 2.2 µM.

Turning to `CC(=O)O[C@H]1C(=O)[C@@]2(C)[C@H]([C@H](OC(=O)c3ccccc3)[C@]3(O)C[C@H](OC(=O)[C@H](O)[C@@H](NC(=O)c4ccccc4)c4ccccc4)C(C)=C1C3(C)C)[C@]1(OC(C)=O)CO[C@@H]1C[C@@H]2O` [PACLITAXEL], the EC50 in the experiment with NCI/ADR-RES amounted to 2 µM; in the experiment with MCF7 it was 2.1 nM. For the same compound, the ED50 in experiment [1] was found to be 1.2 µM.
